Measured values taken from patent US7837670B2, “Methods and devices for delivering therapeutic agents into the prostate gland” (Boston Scientific Scimed, Inc., priority 2005, dated 2010).

Tests used:
[1] = Autoradiography of the prostate after transurethral catheter injection of tritium labeled agent
[2] = Parallel autoradiography of liver and urogenital organs to test for regurgitation or escape into the blood stream
BPH = settings: only after 6 months of oral treatment; cited from earlier work
[3] = 6 hours after transurethral injection of 150 uCi 3H-flutamide
[4] = 24 hours after transurethral injection of 150 uCi 3H-flutamide
[5] = 48 hours after transurethral injection of 150 uCi 3H-flutamide

3H-flutamide [tritium labeled flutamide]
diffuse (non-nuclear, including stroma) activity in prostate ([1]; 1 hour after transurethral injection of 150 uCi 3H-flutamide): Strong, diffuse activity scattered over the whole prostate | free (extra-nuclear) activity in prostate [1, 3]: periphery of the gland. Practically no free (extra-nuclear) | glandular nuclear activity in prostate [1, 3]: Strong, selective glandular (but not stromal or muscular) | glandular nuclear activity in prostate ([1]; 12 hours after transurethral injection of 150 uCi 3H-flutamide): Strong, selective glandular (but not stromal or muscular) | nuclear binding in prostate [1, 4]: Strong nuclear binding | unbound activity in prostate [1, 4]: minimal unbound activity scattered | extra-nuclear labeling in prostate [1, 5]: covers the whole prostate, minimal scattered extra-nuclear | glandular nuclear activity in prostate [1, 5]: Still strong, although somewhat less activity over the | autoradiographic labeling of seminal vesicle, seminal duct and testicular samples ([2]; all time points (1, 6, 12, 24, 48 hours)): remained all negative | autoradiographic grains in the epididymis (regurgitation of the label) ([2]; epididymis, 6 hours after transurethral injection of 150 uCi): No grains are seen in the epididymis | autoradiographic grains in the liver (escape into systemic circulation) ([2]; liver, 48 hours after transurethral injection of 150 uCi): No grains are seen in the liver

CC(C)(C)NC(=O)[C@H]1CC[C@H]2[C@@H]3CC[C@H]4NC(=O)C=C[C@]4(C)[C@H]3CC[C@]12C [finasteride]
alleviation of BPH complaints, share of cases (BPH): about half of the cases
